Paper PMC4742234, “Screening of Drug Metabolizing Enzymes for the Ginsenoside Compound K In Vitro: An Efficient Anti-Cancer Substance Originating from Panax Ginseng” (PLoS ONE, 2016)
“And” between values parts separate entries of the source, which are not always exact repeats. Equal entries are not always repeated.

Molecular target: CYP2C9 (Homo sapiens, UniProt P11712)
Assay: Kinetic analysis of CK metabolism by recombinant CYP2C9
Assay type: in vitro ADME
Set-up: purchased Cypex Ltd. (U.K.)
Conditions: recombinant CYP2C9 10 pmol, CK 10–100 μM
Method: The method was conducted according to our previous study with some modifications. The CYP isoform-specific probe reactions used were phenacetin O-deethylation (for CYP1A2), coumarin 7-hydroxylation (for CYP2A6), tolbutamide 4-hydroxylation (for CYP2C9), metoprolol α-hydroxylation (for CYP2D6), chlorzoxazone 6-hydroxylation (for CYP2E1),S-Mephenytoin 4-hydroxylation (for CYP2C19), and midazolam 1-hydroxylation (for CYP3A4). The kinetic study of CK was conducted with HLMs. A 0.2 mL incubation mixture that consisted of CK (as a substrate), the HLMs (0.5 mg/mL) or CYP isoforms (10 pmol), and 0.1 M sodium phosphate buffer (pH 7.4) was pre-warmed for 5 min at 37°C. The reaction was initiated by the addition of 1 mg/mL triphosphopyridine nucleotide (NADPH). […]
The kinetic parameters for the metabolism of CK were determined by incubating increasing concentrations of CK (10–100 μM) at 37°C with the HLMs and NADPH under the incubation conditions as described in detail previously. The equation of CK reaction velocity (V) in the HLMs or CYP isoforms is expressed as V = (C0–Ct)/T/Cp, where C0and Ct are the initial and final concentrations of CK in the incubation solution, respectively, T is the incubation time (min), and Cp is the protein concentration (mg/mL or nmol). All values were expressed as the mean±standard deviation (SD). […]

CYP2C9, sequence (P11712 whole entry): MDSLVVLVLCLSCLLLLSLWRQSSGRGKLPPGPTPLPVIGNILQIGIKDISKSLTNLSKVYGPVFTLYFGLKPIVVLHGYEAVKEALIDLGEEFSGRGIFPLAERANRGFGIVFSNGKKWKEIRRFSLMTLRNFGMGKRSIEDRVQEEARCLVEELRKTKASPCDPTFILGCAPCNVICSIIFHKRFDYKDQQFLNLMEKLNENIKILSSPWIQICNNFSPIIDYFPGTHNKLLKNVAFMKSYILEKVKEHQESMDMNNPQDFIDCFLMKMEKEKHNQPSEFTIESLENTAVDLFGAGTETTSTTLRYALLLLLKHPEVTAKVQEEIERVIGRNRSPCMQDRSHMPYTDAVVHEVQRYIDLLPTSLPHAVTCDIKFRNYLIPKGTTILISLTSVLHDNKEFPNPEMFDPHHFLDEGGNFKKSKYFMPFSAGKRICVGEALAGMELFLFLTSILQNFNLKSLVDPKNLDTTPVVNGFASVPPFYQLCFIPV

SMILES: CC(C)=CCC[C@](C)(OC1O[C@H](CO)[C@@H](O)[C@H](O)[C@H]1O)[C@H]1CC[C@]2(C)[C@@H]1[C@H](O)C[C@@H]1[C@@]3(C)CC[C@H](O)C(C)(C)[C@@H]3CC[C@]12C (stereo partly drawn) [CK, 20-O-β-(D-glucopyranosyl)-20(S)-protopanaxadiol]
- Vmax of CK metabolism: 0.45±0.05 nmol/nmol P450/min and 0.4537 nmol/nmol P450/min
